Results on two compounds are retold here after patent publication US7910624B1, “Compositions for the treatment of blood disorders” (The Trustees of Boston University, priority 1995, dated 2011).

Assay [1] relates to human erythroid cell line K562. The assay can be described thus: Cell viability / growth of K562 by Calcein-AM fluorescence. Type of assay: cell-based. The note with it: 0.5 mM; over 3 days. As to the method: Such activities might limit their utility for treatment of anemias such as occur in thalassemia, but alternatively would be useful for anticancer effects. To determine cell viability, human erythroid cells were cultured in the presence and absence of these compounds for 4 days and the amount of DNA fragmentation which occurred was measured.
(§1) Cell viability analyses were performed using fluorescent staining to detect living cells. Cells were in log phase of growth in 6-well dishes when used in proliferation assays. For enumeration of living cells, wells were washed once with medium to remove nonadherent or dead cells. Remaining live cells were labeled with Calcein-AM for 20 minutes at 37° C. and washed once. Fluorescence intensity of adherent live cells was read on a CytoFluor 2300 Fluorescence Plate Scanner (Millipore; Bedford, Mass.) at excitation and emission wavelengths of 485 and 530 nm, respectively. The fluorescence intensity of a well was proportional to the number of living cells in the well. Background fluorescence was measured separately for each plate and subtracted from all readings. Each experiment was performed in triplicate or quadruplicate. The standard deviation (SD) of repetitive readings was less than 30% of the mean.
At higher concentrations, still easily achievable in vivo, arginine butyrate (0.5 mM) and dihydrocinnamic acid (greater than 0.5 mM) inhibited growth of this tumor cell line by approximately 50%. Therefore, these compounds are also useful as anti-tumor agents.

For assay [2], the system named is erythroid progenitor cells cultured from human cord blood. As to the kind of experiment: Fetal globin expression in human cell cultures (3H-leucine labelled globin chains, densitometry). Type of assay: cell-based. As to the method:
Compositions were tested for activity in inducing fetal globin expression and protein production in erythroid progenitor cells cultured from human cord blood and analyzed as described by S. P. Perrine et al. (Blood 74: 454-60, 1989). Briefly, mononuclear cells were cultured in IMDM with 30% fetal calf serum and 2 units erythropoietin per ml to induce erythroid differentiation. Colonies were harvested on day 12-13, incubated with radio-labelled (^3H) leucine, and further incubated in leucine-free media, still in the presence of compounds, overnight. Globin composition in the erythroid cells was analyzed by laser densitometry of electrophoretically separated globin chains stained with Coomassie blue, and by autoradiography. Treated cells were incubated for 12-13 days (Table 2, Experiments A and B) or overnight (Table 2, Experiment C) in the presence of the indicated compounds and compared to untreated control cells cultured from the same human subject.

Assay [3] deals with erythroid cells (peripheral blood cells). As to the kind of experiment: Erythroid cell viability by Calcein-AM fluorescent staining (FIG. 2). The class given is cell-based. The note with it: 0.5 mM. The protocol:
as §1, with “Compositions were tested for the ability to directly stimulate erythroid cell growth. Cell growth stimulation is a useful property for an agent to be used to treat anemias and distinguishes such agents from the cytotoxic drugs currently being tested for treatment of hemoglobinopathies. Cell viability” for “Cell viability”, “labeled with 2 μM 2′,7′-bis-(carboxyethyl)-5-(and 6)-carboxy-fluorescein acetoxy-methyl ester (Calcein-AM) (Molecular Probes; Eugene, Oreg.) for 20” for “labeled with Calcein-AM for 20”, “intensity of live cells” for “intensity of adherent live cells”, “the mean. Results are depicted in FIG. 2.” for “the mean.”

For assay [4], the system named is BFU-e (burst forming unit-erythroid) colonies from peripheral blood mononuclear cells. As to the kind of experiment: Stimulation of erythroid proliferation in cell cultures (BFU-e colony growth). The class given is cell-based, human. The note with it: 0.1 mM; 13-14 days; compared with control cultures. The protocol:
Peripheral blood was collected from normal volunteers and patients with anemia due to sickle cell disease or thalassemia. Mononuclear cells were isolated by Ficoll-Hypaque (Pharmacia Biotech; Piscataway, N.J.) centrifugation and cultured in Iscove's Modified Dulbecco's Media (IMDM; GIBCO/BRL; Grand Island, N.Y.) supplemented with 10% fetal calf serum, 300 μg/ml glutamine, 3 units/ml IL-3 (Amgen; Thousand Oaks, Calif.), and 2 units/ml erythropoietin (Terry Fox Labs; Vancouver, B.C.). Chemical compounds were obtained from Sigma Chemical (St. Louis, Mo.) or Aldrich Chemical (Milwaukee, Wis.), unless otherwise indicated, and formulated into pharmaceutical compositions by dissolving in aqueous solutions of media or sterile water pH adjusted to about 7.4. Solutions were sterilized by passage at least once through 0.22 micron Nalgene filters and added to cell cultures at final concentrations that are pharmaceutically achievable in vivo (typically between about 0.1 mM to 2.0 mM). Cells were incubated with compounds for between 13-14 days at 37° C. in humidified 5% CO2, and fed and passed, as necessary. Colony growth, proportion of fetal globin-expressing cells and amounts of fetal globin production were assayed. Results are presented in Table 1 as BFU-e stimulation (colony growth).

The subject of assay [5] is anemic juvenile baboons. As to the kind of experiment: In vivo reticulocyte proliferation and globin expression in phlebotomized anemic baboons. Details: species or system baboon. The protocol:
Experiments were performed to determine if administration of the chemical compositions could induce fetal globin gene expression in an in vivo model similar to humans (S. P. Perrin et al., Brit. J. Haematol. 88:555-61, 1994). Briefly, chemicals were prepared as sterile pharmaceutical solutions in pH adjusted sterile water. A variety of chemical compositions were administered sequentially to some baboons. After administration of one compound, a wash-out period with no compound administration was maintained until reticulocytes returned to base line prior to administration of the next compound. This was done, at least partly, to compare the magnitude of response which occurred within the same individual animal to different compounds.
Briefly, juvenile female baboons (2 years old) were catheterized with arterial and venous catheters and phlebotomized gradually every day to maintain a moderate anemia of 7.0 to 7.5 grams hemoglobin/dl. Fetal reticulocytes, the newly produced red blood cells containing fetal globin, were assayed using a monoclonal antibody against fetal globin (HbF) as described by G. Dover et al. (Blood 67:735-38, 1986). Briefly, blood was stained with two antibodies, one specific for reticulocytes and another against fetal globin protein. The amount of antibody bound cells was determined by FACS analysis. Globin chain synthesis was assayed as described by J. B. Clegg et al. (J. Mol. Biol. 19:91-108, 1966). Briefly, reticulocytes were radio-labeled with ^3H-leucine which was incorporated in equal proportions into actively synthesized globin chains. After incubation in leucine-free media, cells were washed, and globin proteins were separated and purified by column chromatography. Radioactivity incorporated into each peak is compared and the ratios of gamma to gamma plus beta globin calculated. Each animal served as its own control with baseline monitoring assays performed for 4-6 weeks before any drug was administered. Phlebotomy was continued daily, so that peripheral HbF levels in the animals were not considered to be accurate over the short treatment time-frames and were not monitored. Safety monitoring was performed by frequent physical examinations, quantitation of food eaten, activity and frequent chemistry and hematology monitoring. Complete blood counts were assayed before, during and after treatment. Results presented were not adjusted to account for the daily phlebotomy.

The test system of assay [6] is bone marrow cells. Particulars: continuous intravenous administration; cited from earlier work.

Turning to `O=C(O)CCc1ccccc1` [DHC, Dihydrocinnamic acid], the “growth of K562” value in assay [1] is listed as “either did not inhibit, or slightly enhanced growth”. Moreover, the “Gamma Increase” value in assay [2] (Exp. A, 0.1 mM, 12-13 days, above untreated cells) came out at 12.0%; in assay [2] (Exp. C, 0.1 mM, overnight), 24%; in assay [2] (Exp. C, 0.2 mM, overnight), 20.0%; in assay [2] (Exp. C, 0.5 mM, overnight), 19%. For the same compound, the “erythroid cell growth and proliferation compared to untreated controls (FIG. 2)” value in assay [3] is “either had no effect or stimulated erythroid cell growth and proliferation”. Moreover, the “BFU-e Stimulation (colony growth)” value in assay [4] came to 124%. The “fetal reticulocytes after treatment” value in assay [5] (infused 4 days, 300 to 500 mg/kg per day, from 10%) is 17%. In assay [5] (intravenous 1,000 mg/kg/day, 4 days, from 2.3), the “red blood cell count after treatment” value is recorded as 2.73 ×10^6 cells/μl. The “total hemoglobin after treatment” value in assay [5] (intravenous 1,000 mg/kg/day, 4 days, from 6.6) worked out at 7.3 grams/dl. Further, the “packed red blood cell volume after treatment” value in assay [5] (intravenous 1,000 mg/kg/day, 4 days, from 20.9%) is on record as 22.7 % of the blood.
Take `Nc1ncn([C@@H]2O[C@H](CO)[C@@H](O)[C@H]2O)c(=O)n1` [AZA, 5-azacytidine]: the “increase in γ globin mRNA of bone marrow cells” value in assay [6] is “five- to seven-fold”.
